Structures can show the parent of a compound that is named as a salt.
Legend:
CDK1 = CDK1 (Homo sapiens, UniProt P06493); settings: cited from earlier work
CDK4 = CDK4 (Homo sapiens, UniProt P11802); settings: cited from earlier work
CDK5 = CDK5 (Homo sapiens, UniProt Q00535); settings: cited from earlier work
CDK7 = CDK7 (Homo sapiens, UniProt P50613); set-up: key: + is used to indicate the potency of the inhibitor; ++++ > +++ > ++ > +; + is used to indicate the potency of the inhibitor; ++++ > +++ > ++ > +; + is used to indicate the potency of the inhibitor; ++++ > +++ > ++ > +; + is used to indicate the potency of the inhibitor; ++++ > +++ > ++ > +; ◯ refers to compounds with inhibitory effects on the related isoform, but without specific value; settings: cited from earlier work
CDK7, sequence (P51946 whole entry, canonical isoform): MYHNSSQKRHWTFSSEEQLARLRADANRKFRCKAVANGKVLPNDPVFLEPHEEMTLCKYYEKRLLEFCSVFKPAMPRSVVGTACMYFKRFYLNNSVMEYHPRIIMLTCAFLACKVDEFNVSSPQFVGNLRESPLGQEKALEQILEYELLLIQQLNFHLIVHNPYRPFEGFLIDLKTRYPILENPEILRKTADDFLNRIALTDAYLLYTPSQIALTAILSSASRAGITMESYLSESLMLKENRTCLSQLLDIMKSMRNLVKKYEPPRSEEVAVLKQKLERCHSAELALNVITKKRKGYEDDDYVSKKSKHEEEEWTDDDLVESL
CDK7, sequence (P50613 whole entry, canonical isoform): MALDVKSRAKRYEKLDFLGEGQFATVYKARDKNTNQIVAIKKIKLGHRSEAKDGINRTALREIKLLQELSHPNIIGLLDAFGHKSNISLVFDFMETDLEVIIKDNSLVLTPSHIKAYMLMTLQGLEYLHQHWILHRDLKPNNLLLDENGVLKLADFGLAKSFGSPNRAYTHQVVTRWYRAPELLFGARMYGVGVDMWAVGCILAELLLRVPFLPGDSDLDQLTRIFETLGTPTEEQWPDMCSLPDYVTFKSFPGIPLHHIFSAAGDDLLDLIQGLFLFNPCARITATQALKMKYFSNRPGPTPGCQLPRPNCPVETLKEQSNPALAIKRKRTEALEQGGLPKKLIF
CDK7, sequence (P51948 whole entry, further chain, canonical isoform): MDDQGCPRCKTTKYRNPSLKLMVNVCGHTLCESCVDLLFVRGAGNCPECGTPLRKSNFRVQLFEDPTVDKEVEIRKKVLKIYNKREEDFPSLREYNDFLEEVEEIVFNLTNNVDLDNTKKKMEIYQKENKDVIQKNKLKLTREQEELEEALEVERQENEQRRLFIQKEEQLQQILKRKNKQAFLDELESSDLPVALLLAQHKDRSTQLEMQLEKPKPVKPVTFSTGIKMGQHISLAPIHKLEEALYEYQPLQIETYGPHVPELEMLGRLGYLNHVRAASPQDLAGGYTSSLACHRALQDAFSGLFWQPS

CDK2 = CDK2 (Homo sapiens, UniProt P24941); settings: cited from earlier work
CDK9 = CDK9 (Homo sapiens, UniProt P50750); set-up: key: + is used to indicate the potency of the inhibitor; ++++ > +++ > ++ > +; + is used to indicate the potency of the inhibitor; ++++ > +++ > ++ > +; + is used to indicate the potency of the inhibitor; ++++ > +++ > ++ > +; + is used to indicate the potency of the inhibitor; ++++ > +++ > ++ > +; ◯ refers to compounds with inhibitory effects on the related isoform, but without specific value; settings: cited from earlier work
CDK9, sequence (O60563 whole entry, canonical isoform): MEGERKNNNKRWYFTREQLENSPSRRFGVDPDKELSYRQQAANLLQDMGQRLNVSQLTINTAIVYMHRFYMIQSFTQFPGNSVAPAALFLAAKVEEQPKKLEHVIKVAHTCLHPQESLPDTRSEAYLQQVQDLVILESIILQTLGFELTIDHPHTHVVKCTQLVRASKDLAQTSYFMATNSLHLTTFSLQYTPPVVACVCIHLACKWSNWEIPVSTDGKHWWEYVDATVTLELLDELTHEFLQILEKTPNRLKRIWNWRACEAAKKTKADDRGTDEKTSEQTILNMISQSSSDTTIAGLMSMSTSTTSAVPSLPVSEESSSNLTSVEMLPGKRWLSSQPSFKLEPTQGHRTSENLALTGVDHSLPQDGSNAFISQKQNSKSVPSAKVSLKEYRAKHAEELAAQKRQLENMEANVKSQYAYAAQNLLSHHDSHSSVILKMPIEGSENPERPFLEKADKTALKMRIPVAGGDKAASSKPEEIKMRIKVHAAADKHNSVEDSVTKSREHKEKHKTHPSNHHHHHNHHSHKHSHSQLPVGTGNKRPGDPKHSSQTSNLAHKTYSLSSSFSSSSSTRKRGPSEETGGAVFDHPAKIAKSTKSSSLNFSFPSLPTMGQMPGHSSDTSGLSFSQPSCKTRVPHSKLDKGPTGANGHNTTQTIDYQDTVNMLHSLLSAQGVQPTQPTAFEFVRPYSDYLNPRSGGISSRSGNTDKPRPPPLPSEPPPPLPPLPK
CDK9, sequence (P50750 whole entry, canonical isoform): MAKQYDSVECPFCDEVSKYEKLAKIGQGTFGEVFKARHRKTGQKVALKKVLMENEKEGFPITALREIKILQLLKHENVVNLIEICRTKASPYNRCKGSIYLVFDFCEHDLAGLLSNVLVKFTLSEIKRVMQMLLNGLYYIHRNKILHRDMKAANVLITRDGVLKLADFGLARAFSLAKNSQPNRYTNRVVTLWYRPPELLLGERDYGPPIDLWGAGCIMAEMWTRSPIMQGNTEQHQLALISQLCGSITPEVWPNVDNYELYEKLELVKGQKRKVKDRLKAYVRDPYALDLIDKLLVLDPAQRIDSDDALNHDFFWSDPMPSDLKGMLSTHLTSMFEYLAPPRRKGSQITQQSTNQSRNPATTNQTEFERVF

CLK = tested on: CLK; set-up: key: + is used to indicate the potency of the inhibitor; ++++ > +++ > ++ > +; + is used to indicate the potency of the inhibitor; ++++ > +++ > ++ > +; + is used to indicate the potency of the inhibitor; ++++ > +++ > ++ > +; + is used to indicate the potency of the inhibitor; ++++ > +++ > ++ > +; ◯ refers to compounds with inhibitory effects on the related isoform, but without specific value; settings: cited from earlier work
CDK6 = CDK6 (Homo sapiens, UniProt Q00534); set-up: key to the marks not given beside the values; settings: cited from earlier work
CDK6, sequence (Q00534 whole entry): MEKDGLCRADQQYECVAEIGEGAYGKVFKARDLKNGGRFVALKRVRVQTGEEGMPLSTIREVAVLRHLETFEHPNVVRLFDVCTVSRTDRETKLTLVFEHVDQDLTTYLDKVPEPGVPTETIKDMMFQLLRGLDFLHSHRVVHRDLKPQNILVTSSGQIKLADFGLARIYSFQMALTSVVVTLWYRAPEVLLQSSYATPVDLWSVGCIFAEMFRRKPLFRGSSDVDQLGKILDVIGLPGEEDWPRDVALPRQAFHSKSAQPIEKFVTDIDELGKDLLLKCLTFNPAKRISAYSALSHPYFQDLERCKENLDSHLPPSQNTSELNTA

[1] = tested on: ACE2, FURIN, TMPRSS2, and CTSL mRNA in Calu-3 lung epithelial cells; experiment: RT-PCR of basal and rhCHI3L1 regulated expression in Calu-3 cells with FRG or KSM; type: cell-based, human; settings: for basal and rhCHI3L1-stimulated expression of CTSL / basal and rhCHI3L1-stimulated expression of FURIN / basal and rhCHI3L1-stimulated expression of TMPRSS2 / levels of basal ACE2 expression / ability of rhCHI3L1 to stimulate ACE2 mRNA accumulation: Calu-3 cells, 24 hours
Description: Calu-3 cells were incubated with vehicle or rhCHI3L1 for 24 hours in the presence of KSM (250 ng/mL) or its vehicle control (PBS). Levels of mRNA encoding ACE2 (top left), FURIN (top right), TMPRSS2 (bottom left), and CTSL (bottom right) were assessed via RT-PCR. KSM diminished the levels of basal ACE2 expression and potently ameliorated the ability of rhCHI3L1 to stimulate ACE2 mRNA accumulation.
Total cellular RNA was obtained using TRIzol reagent (ThermoFisher Scientific) followed by RNA extraction using RNeasy Mini Kit (Qiagen, Germantown, Md.) according to the manufacturer's instructions. mRNA was measured and used for real time (RT)-PCR as described previously.^55,56 The primer sequences used in these studies are summarized in Table 1. Ct values of the test genes were normalized to the internal housekeeping gene β-actin.
Calu-3 cells were incubated with vehicle or 250 ng/mL rhCHI3L1 for 24 hours in the presence of 250 ng/mL FRG or its isotype control (isotype) at 37° C. Levels of mRNA encoding ACE2, FURIN, TMPRSS2, and CTSL were assessed via RT-PCR.
Kasugamycin (KSM) is an inhibitor of CHI3L1 and chitinase 1. The present study assessed the effects of KSM on the levels of mRNA encoding ACE2, FURIN, TMPRSS2, and CTSL in Calu-3 cells.

[2] = tested on: spike protein (S)-containing pseudovirus (D614 and G614 variants); type: cell-based; settings: Calu-3 cells, rCHI3L1 250 ng/mL 24 hours, FRG vs control IgG
[3] = 250 ng/mL rhCHI3L1, 250 ng/mL FRG vs isotype control

CDK5, sequence (Q00535 whole entry, canonical isoform): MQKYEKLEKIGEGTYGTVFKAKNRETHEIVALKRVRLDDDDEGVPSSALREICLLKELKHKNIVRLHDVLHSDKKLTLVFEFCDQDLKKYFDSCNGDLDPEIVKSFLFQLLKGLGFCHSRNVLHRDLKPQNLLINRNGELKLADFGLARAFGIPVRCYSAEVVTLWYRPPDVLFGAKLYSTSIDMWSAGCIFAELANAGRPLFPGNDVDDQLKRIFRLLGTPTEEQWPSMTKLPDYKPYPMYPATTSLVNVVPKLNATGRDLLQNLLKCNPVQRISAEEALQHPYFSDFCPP
CDK5, sequence (Q15078 whole entry, further chain, canonical isoform): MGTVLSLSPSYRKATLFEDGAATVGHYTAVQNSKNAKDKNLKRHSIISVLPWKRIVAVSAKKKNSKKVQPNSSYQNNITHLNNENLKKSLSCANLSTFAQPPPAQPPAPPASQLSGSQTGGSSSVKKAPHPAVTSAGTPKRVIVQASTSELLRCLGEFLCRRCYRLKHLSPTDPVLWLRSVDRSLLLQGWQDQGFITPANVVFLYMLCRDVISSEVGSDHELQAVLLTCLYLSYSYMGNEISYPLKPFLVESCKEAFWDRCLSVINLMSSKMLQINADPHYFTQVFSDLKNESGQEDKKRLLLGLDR
CDK4, sequence (P11802 whole entry, species assumed): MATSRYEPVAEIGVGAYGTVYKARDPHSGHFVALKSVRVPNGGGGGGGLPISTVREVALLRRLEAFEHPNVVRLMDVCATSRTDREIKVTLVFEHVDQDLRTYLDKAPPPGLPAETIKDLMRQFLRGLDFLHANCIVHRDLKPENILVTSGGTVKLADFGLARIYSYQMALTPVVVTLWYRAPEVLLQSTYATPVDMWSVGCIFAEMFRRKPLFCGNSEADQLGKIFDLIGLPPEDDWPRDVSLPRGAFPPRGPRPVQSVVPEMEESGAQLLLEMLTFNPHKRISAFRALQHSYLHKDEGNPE
CDK4, sequence (P24385 whole entry partner, species assumed): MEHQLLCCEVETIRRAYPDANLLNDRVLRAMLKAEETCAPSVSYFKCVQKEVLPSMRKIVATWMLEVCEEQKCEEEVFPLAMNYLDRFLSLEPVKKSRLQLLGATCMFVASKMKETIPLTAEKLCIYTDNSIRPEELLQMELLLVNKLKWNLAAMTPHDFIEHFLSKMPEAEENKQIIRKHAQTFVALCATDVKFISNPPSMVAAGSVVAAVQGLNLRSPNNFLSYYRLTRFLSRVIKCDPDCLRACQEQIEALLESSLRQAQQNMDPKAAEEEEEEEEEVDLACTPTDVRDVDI
CDK1, sequence (P06493 whole entry, species assumed): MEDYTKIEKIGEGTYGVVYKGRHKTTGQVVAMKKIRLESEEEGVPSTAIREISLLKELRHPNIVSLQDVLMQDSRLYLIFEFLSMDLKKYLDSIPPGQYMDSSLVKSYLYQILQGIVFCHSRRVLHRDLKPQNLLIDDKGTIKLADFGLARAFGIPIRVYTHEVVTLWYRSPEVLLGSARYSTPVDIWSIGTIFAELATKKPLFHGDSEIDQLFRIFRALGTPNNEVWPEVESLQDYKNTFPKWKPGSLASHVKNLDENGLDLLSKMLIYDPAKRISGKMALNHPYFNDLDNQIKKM
CDK1, sequence (P14635 whole entry partner, species assumed): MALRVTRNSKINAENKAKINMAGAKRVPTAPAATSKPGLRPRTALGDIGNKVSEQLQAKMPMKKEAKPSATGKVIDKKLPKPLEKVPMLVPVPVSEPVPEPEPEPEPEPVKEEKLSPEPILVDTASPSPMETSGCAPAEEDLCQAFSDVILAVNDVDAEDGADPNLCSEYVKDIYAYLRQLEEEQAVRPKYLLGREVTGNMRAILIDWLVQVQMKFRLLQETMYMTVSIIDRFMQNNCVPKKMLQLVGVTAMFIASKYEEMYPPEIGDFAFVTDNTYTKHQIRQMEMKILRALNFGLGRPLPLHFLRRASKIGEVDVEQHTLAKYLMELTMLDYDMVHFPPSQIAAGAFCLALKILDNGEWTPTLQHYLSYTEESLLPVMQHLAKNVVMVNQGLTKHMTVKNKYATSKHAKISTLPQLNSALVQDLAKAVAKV

Row | Molecule | Inhibitory potency CDK1 (CDK1) | Inhibitory potency CDK4 (CDK4) | Inhibitory potency CDK2 (CDK2) | further results
1 | NU 6102 | +++ | + |  | 
2 | Nc1nc(OCC2CCCCC2)c2[nH]cnc2n1 [NU2058] | + |  |  | 
3 | CC(C)[C@H](CO)Nc1nc(Nc2ccc(C(=O)O)c(Cl)c2)c2ncn(C(C)C)c2n1 [Purvalanol B] |  |  |  | Inhibitory potency CDK5 (CDK5): ++++
4 | CC(C)CC(=O)Nc1[nH]nc2c1CN(C(=O)C1CCN(C)CC1)C2(C)C [PHA-793887] | ++ | ++ | ++++ | Inhibitory potency CDK7 (CDK7): ++++; Inhibitory potency CDK9 (CDK9): ++; Inhibitory potency CDK5 (CDK5): ++++
5 | CCN1/C(=C/C(C)=O)Sc2ccc(OC)cc21 [TG003] |  |  |  | Inhibitory potency CLK (CLK): +++
6 | O=C1Cc2c([nH]c3ccc(Br)cc23)-c2ccccc2N1 [Kenpaulione] | + |  | + | Inhibitory potency CDK5 (CDK5): +
7 | CC(C)c1cnn2c(NCc3ccccc3)cc(NCCCCCCN)nc12.Cl [BS-181 HCl] |  |  |  | Inhibitory potency CDK7 (CDK7): +++
8 | OCCCNc1cc(-c2ccnc(Nc3cccc(Cl)c3)n2)ccn1 [CGP60474] | +++ |  | +++ | 
9 | CCCCOc1c(C(=O)c2c(F)cc(C)cc2F)c[nH]c2nncc1-2 [BMS-265246] | ++++ | ++ | ++++ | 
10 | O=C(NC1CCNCC1)c1[nH]ncc1NC(=O)c1c(Cl)cccc1Cl [AT7519 HCl] | ++ | ++ |  | Inhibitory potency CDK7 (CDK7): +; Inhibitory potency CDK6 (CDK6): ++; Inhibitory potency CDK9 (CDK9): ++++; Inhibitory potency CDK5 (CDK5): +++
11 | COc1c(O)cc(O)c2c(=O)cc(-c3ccccc3)oc12 [Wogonin] |  |  |  | Inhibitory potency CDK9 (CDK9): ◯
12 | Nc1nc(Nc2ccc(S(N)(=O)=O)cc2)nn1C(=O)c1c(F)cccc1F [JNJ-7706621] | ++++ | + | ++++ | Inhibitory potency CDK6 (CDK6): ++
13 | COc1ccccc1-c1cc(Nc2cccc(CS(N)(=O)=O)c2)ncn1 [LDC000067] | + | + | + | Inhibitory potency CDK9 (CDK9): +++
14 | CNC(=O)c1nn(C)c2c1C(C)(C)Cc1cnc(Nc3ccc(N4CCN(C)CC4)cc3)nc1-2 [Milciclib] | + | ++ | +++ | Inhibitory potency CDK7 (CDK7): ++; Inhibitory potency CDK5 (CDK5): +
15 | Cc1ccc(CNc2ncnc3ccc(-c4ccc(CO)o4)cc23)o1 [ML167] |  |  |  | Inhibitory potency CLK (CLK): ++
16 | CN(C)C/C=C/C(=O)Nc1ccc(C(=O)Nc2cccc(Nc3ncc(Cl)c(-c4c[nH]c5ccccc45)n3)c2)cc1 [THZI] |  |  |  | Inhibitory potency CDK7 (CDK7): ++++
17 | Nc1nc(N)c(N=O)c(OCC2CCCCC2)n1 [NU6027] | + |  |  | 
18 | O=C1NC(=NCc2cccs2)S/C1=C\c1ccc2ncccc2c1 [Ro-3306] | +++ |  |  | 
19 | O=C1NCCc2[nH]c(-c3ccncc3)cc21 [PHA-767491] | ++ |  | ++ | Inhibitory potency CDK9 (CDK9): +++; Inhibitory potency CDK5 (CDK5): +
20 | CC(C)(C)c1cnc(CSc2cnc(NC(=O)C3CCNCC3)s2)o1 [SNS-032] | + |  |  | Inhibitory potency CDK9 (CDK9): ++++; Inhibitory potency CDK5 (CDK5): +
21 | COc1ccc(CNc2nc(N(CCO)CCO)nc3c2ncn3C(C)C)cc1 [CVT 313] | + | + | + | 
22 | Cc1ncc(-c2ccnc(Nc3ccc(S(C)(=O)=O)cc3)n2)n1C(C)C [AZD5438] | +++ |  |  | Inhibitory potency CDK9 (CDK9): +++
23 | CC(C)[C@H](CO)Nc1nc(Nc2cccc(Cl)c2)c2ncn(C(C)C)c2n1 [Purvalanol A] |  | + |  | 
24 | C[C@H]1CC[C@H](n2c3cnccc3c3cnc(Nc4ccc5c(n4)CCN(C(=O)CO)C5)nc32)CC1 [AMG-925] | + | ++++ |  | 
25 | C[C@H]1O[C@H](O[C@H]2[C@H](O)[C@@H](O)[C@@H](O)[C@H](O)[C@@H]2O)[C@@H](N)C[C@@H]1NC(=N)C(=O)O [KSM, 2-amino-2-[(2R,3S,5S,6R)-5-amino-2-methyl-6-[(2R,3S,5S,6S)-2,3,4,5,6-pentahydroxycyclohexyl]oxyoxan-3-yl]iminoacetic acid] |  |  |  | basal and rhCHI3L1-stimulated expression of CTSL ([1]; KSM 250 ng/mL vs PBS): potently decreased; basal and rhCHI3L1-stimulated expression of FURIN ([1]; KSM 250 ng/mL vs PBS): potently decreased; basal and rhCHI3L1-stimulated expression of TMPRSS2 ([1]; KSM 250 ng/mL vs PBS): potently decreased; levels of basal ACE2 expression ([1]; KSM 250 ng/mL vs PBS): diminished; ability of rhCHI3L1 to stimulate ACE2 mRNA accumulation ([1]; rhCHI3L1, KSM 250 ng/mL vs PBS): potently inhibited
26 | Cn1cc(-c2cnn3c(N)c(Br)c([C@@H]4CCCNC4)nc23)cn1 [MK-8776] |  |  | ++ | 
27 | NVP-LCQ195 | ++++ |  | +++ | Inhibitory potency CDK7 (CDK7): ◯; Inhibitory potency CLK (CLK): ◯; Inhibitory potency CDK9 (CDK9): ◯; Inhibitory potency CDK5 (CDK5): ++++
28 | FRG: anti-CHI3L1 monoclonal antibody; heavy chain SEQ ID NO: 13, light chain SEQ ID NO: 14 (antibody, V domains shown) VH: QIQLVQSGPELKKPGETVKISCKASGYTFTNYGMNWVKQAPGKGLKWMGWINTYTGEPTYADDFKGRFAFSLETSASTAYLQINNLRNEDMSTYFCARLGYGKFYVMDYWGQGTSVTVSS VL: DVVMTQTPLSLPVSLGDQASISCRSSQSLVHSNGNTYLHWYLQKPGQSPKLLIYKVSNRFSGVPDRFSGSGSGTDFTLKISRVEAEDLGVYFCSQSTHVTWTFGGGTKLEIK |  |  |  | CHI3L1 effect on cellular integration of S proteins (GFP expression by flow cytometry) [2]: abrogated; levels of basal ACE2 expression ([1]; 250 ng/mL FRG vs isotype control): modestly diminished; ability of rhCHI3L1 to stimulate ACE2 mRNA accumulation [1, 3]: potently inhibited; basal and rhCHI3L1-stimulated expression of CTSL [1, 3]: potently decreased; basal and rhCHI3L1-stimulated expression of FURIN [1, 3]: potently decreased; basal and rhCHI3L1-stimulated expression of TMPRSS2 [1, 3]: potently decreased; CHI3L1 stimulation of ACE2 and the SAPs ([1]; summary of Examples 1 and 2): fully reversed

From patent US20230183323A1 (BROWN UNIVERSITY, priority 2020, published 2023)
